Test system: subcutaneous prostate cancer model (PC3)
Experiment: Tumour specific uptake of Evans Blue vs. Enhancement MI
Format: in vivo, mice
Conditions: Enhancement 0.5 MHz MI 0.2 compared to MI=0 (no ultrasound); 30 min after treatment
Experimental: To investigate the effect of MI variance of the US Enhancement field, tumour specific uptake of Evans Blue (EB, fluorescent dye) has been investigated in a subcutaneous prostate cancer model (PC3) in mice. Five groups with Enhancement insonation MIs of 0, 0.1, 0.2, 0.3 and 0.4 were investigated (N=3 animals per group). […] 30 min after treatment, the tumours were excised and the amount of EB was measured by spectrophotometry at 620 nm.

`Cc1cc(-c2ccc(/N=N/c3ccc4c(S(=O)(=O)O)cc(S(=O)(=O)O)c(N)c4c3O)c(C)c2)ccc1/N=N/c1ccc2c(S(=O)(=O)O)cc(S(=O)(=O)O)c(N)c2c1O` [Evans Blue] was tested, and the “increase in tumour specific uptake” value was about 60%.

Source: patent US20240359037A1, “Ultrasound Method” (ACT THERAPEUTICS LTD, priority 2021, published 2024)
